Reference: PubChem BioAssay AID2060909 (Molecular Pharmacology Branch, DTP, NCI, 2025)

Test system: 362531-283-R-J2-PDC complex spheroid viability
Test: Anticancer human tumor 362531-283-R-J2-PDC patient-derived colon adenocarcinoma cell line growth inhibition [RAS]
Conditions: for IC50: curve of first compound; for viability, T/C: stronger effect = lower value
Description: RAS pathway inhibitors in Combinations in Complex Spheroids
A high-throughput screen of multi-cell type tumor spheroids was designed to identify active combinations of RAS pathway inhibitors and targeted small molecules. Complex spheroids include a stromal component modeled by human endothelial cells (HUVEC) and fibroblasts modeled by human mesenchymal stem cells (MSCs). The concentration ranges selected for each drug and investigational agent were based upon clinically achievable concentrations if the clinical Cmax of the agent was known.
Compounds. The drugs and investigational agents: abemaciclib (NSC768073), cobimetinib (NSC768068), divarasib (GDC6063, NSC841802), docetaxel (NSC628503), GDC-1971 (RLY-1971, NSC841576), gemcitabine (NSC613327), inavolisib (NSC800729), ipatasertib (NSC767898), KB-0742 (NSC834161), MRTX-1133 (NSC836407), osimertinib (NSC779217), RMC-4630 (NSC839698), RMC-6236 (NSC851965), RMC-6291 (NSC852671), Ro-3306 (NSC812927), sapanisertib (NSC764658), SN-38 (NSC673596), staurosporine (NSC755774), SY5609 (NSC837396), and tovorafenib (DAY101, NSC766906), were obtained from the National Cancer Institute (NCI) Developmental Therapeutics Program Chemical Repository. The FDA-approved anticancer drug set is available from the NCI Developmental Therapeutics Program. […] The stock solutions were prepared in dimethyl sulfoxide (DMSO, Sigma-Aldrich, St. Louis, MO, cat. D2650) at 800-fold the tested concentration and stored at -70 degrees C prior to their use. All drugs and investigational agents were tested over a range starting from a high concentration at or near the clinical Cmax and decreasing in half-log increments. If the clinical Cmax for an agent had not been determined, the highest concentration tested was 10 microM.
Cell Culture. All cells were maintained in an incubator at 37 degrees C and 5% CO2 with 95% humidity. The PDC lines were cultured according to standard operating procedures established by the NCI PDMR. All PDCs were thawed and cultured in Matrigel-coated flasks prepared with a working solution of 1X Ham's F-12 nutrient mix, without supplementation (Invitrogen, Waltham, MA, cat. 11765054), 100 U/mL penicillin-streptomycin (Invitrogen, cat. 15140122), and 2.5% Matrigel (Corning Inc., Corning, NY, cat. 354248) for the first three passages. The 362531-283-R-J2-PDC and 782815-120-R-J1-PDC lines were cultured in 6C/Colon 1B media, which includes advanced DMEM/F-12 (Thermo Fisher Scientific, cat. 12634028), 10 mM HEPES (Thermo Fisher Scientific, cat. 15630080), 1X GlutaMAX supplement (Thermo Fisher Scientific, cat. 35050061), 0.1 mg/mL primocin (InvivoGen, San Diego, CA, cat. ant-pm-2), 10% defined fetal bovine serum, heat inactivated (HyClone Laboratories Inc., Logan, UT, cat. SH30070.03HI), 50% L-WRN conditioned media (ATCC, cat. CRL-3276), 1.25 mM N-Acetyl-L-cysteine (Sigma-Aldrich, cat. A9165), 10 mM nicotinamide (Sigma-Aldrich, cat. N0636), 1X B-27 supplement (Thermo Fisher Scientific, cat. 17504044), 1X N-2 supplement (Thermo Fisher Scientific, cat. 17502048), 50 ng/mL human EGF (Thermo Fisher Scientific, cat. PHG0311), and 10 microM Y-27632 dihydrochloride (Tocris Bioscience, cat. 1254). The K12877-001-R-J1-PDC line was cultured in 6I media, which includes all 6C/Colon 1B media plus 10 ng/mL human FGF-10 (PeproTech, cat. 100-26), 1 ng/mL human FGF-2 (PeproTech, cat. 100-18B), 1 µM prostaglandin E2 (Tocris Bioscience, cat. 2296), […] hydrocortisone (Sigma-Aldrich, cat. H4001), and […] bovine insulin (Sigma-Aldrich, cat. I6634). The K86415-001-R-J1-PDC line was cultured in 6D media, which includes all 6C/Colon 1B media components minus the L-WRN conditioned media. The 485176-168-R4-J1-PDC was cultured in PANC media, which includes all 6C/Colon 1B media plus 100 ng/mL human FGF-10 (PeproTech, cat. 100-26), 500 nM SB-431542 (Selleckchem, cat. S1067), and 10 nM gastrin (Tocris Bioscience, cat. 3006). […]

[1] = second compound 0.0316 µM, first compound 0.0316 µM
[2] = second compound 0.0316 µM, first compound 0.1 µM
[3] = second compound 0.0316 µM, first compound 0.316 µM
[4] = second compound 0.0316 µM, first compound 1 µM
[5] = second compound 0.1 µM, first compound 0.0316 µM
[6] = second compound 0.1 µM, first compound 0.1 µM
[7] = second compound 0.1 µM, first compound 0.316 µM
[8] = second compound 0.1 µM, first compound 1 µM
[9] = second compound 0.316 µM, first compound 0.0316 µM
[10] = second compound 0.316 µM, first compound 0.1 µM
[11] = second compound 0.316 µM, first compound 0.316 µM
[12] = second compound 0.316 µM, first compound 1 µM
[13] = second compound 1 µM, first compound 0.0316 µM
[14] = second compound 1 µM, first compound 0.1 µM
[15] = second compound 1 µM, first compound 0.316 µM
[16] = second compound 1 µM, first compound 1 µM
[17] = second compound 3.16 µM, first compound 0.0316 µM
[18] = second compound 3.16 µM, first compound 0.1 µM
[19] = second compound 3.16 µM, first compound 0.316 µM
[20] = second compound 3.16 µM, first compound 1 µM
[21] = second compound 10 µM, first compound 0.0316 µM
[22] = second compound 10 µM, first compound 0.1 µM
[23] = second compound 10 µM, first compound 0.316 µM
[24] = second compound 10 µM, first compound 1 µM
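Note: spheroids exposed to the agents for 7 days before readout.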
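Throughout, for viability, T/C: luminescence viability as percent of DMSO vehicle control wells.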

CC(Nc1ccc2c(c1)OCCn1cc(N3C(=O)OCC3C(F)F)nc1-2)C(N)=O (centres undefined) + C#Cc1c(F)ccc2cc(O)cc(-c3ncc4c(N5CC6CCC(C5)N6)nc(OCC56CCCN5CC(F)C6)nc4c3F)c12
IC50 (second compound 0.0316 µM): 1290 nM | IC50 (second compound 0.1 µM): 963 nM | IC50 (second compound 0.316 µM): 847 nM | IC50 (second compound 1 µM): 421 nM | IC50 (second compound 3.16 µM): 119 nM | IC50 (second compound 10 µM): 42.9 nM | viability, T/C [1]: 90.7% | viability, T/C [2]: 88.4% | viability, T/C [3]: 79% | viability, T/C [4]: 55% | viability, T/C (second compound 0.0316 µM, first compound 3.16 µM): 33.7% | viability, T/C (second compound 0.0316 µM, first compound 10 µM): 31% | viability, T/C [5]: 95% | viability, T/C [6]: 77% | viability, T/C [7]: 69.9% | viability, T/C [8]: 48.6% | viability, T/C (second compound 0.1 µM, first compound 3.16 µM): 34.5% | viability, T/C (second compound 0.1 µM, first compound 10 µM): 28.8% | viability, T/C [9]: 103% | viability, T/C [10]: 81.5% | viability, T/C [11]: 63.7% | viability, T/C [12]: 50.9% | viability, T/C (second compound 0.316 µM, first compound 3.16 µM): 29.7% | viability, T/C (second compound 0.316 µM, first compound 10 µM): 13.8% | viability, T/C [13]: 80.5% | viability, T/C [14]: 59.4% | viability, T/C [15]: 62.9% | viability, T/C [16]: 34.2% | viability, T/C (second compound 1 µM, first compound 3.16 µM): 25.6% | viability, T/C (second compound 1 µM, first compound 10 µM): 18% | viability, T/C [17]: 62% | viability, T/C [18]: 51.9% | viability, T/C [19]: 31.4% | viability, T/C [20]: 7.66% | viability, T/C (second compound 3.16 µM, first compound 3.16 µM): 7.58% | viability, T/C (second compound 3.16 µM, first compound 10 µM): 4.5% | viability, T/C [21]: 56.1% | viability, T/C [22]: 33% | viability, T/C [23]: 6.59% | viability, T/C [24]: 4.96% | viability, T/C (second compound 10 µM, first compound 3.16 µM): 3.74% | viability, T/C (second compound 10 µM, first compound 10 µM): 2.42%

O=C(c1ccc(F)c(F)c1Nc1ccc(I)cc1F)N1CC(O)([C@@H]2CCCCN2)C1 + C#Cc1c(F)ccc2cc(O)cc(-c3ncc4c(N5CC6CCC(C5)N6)nc(OCC56CCCN5CC(F)C6)nc4c3F)c12
IC50 (second compound 0.0316 µM): 413 nM | IC50 (second compound 0.1 µM): 350 nM | IC50 (second compound 0.316 µM): 350 nM | IC50 (second compound 1 µM): 181 nM | IC50 (second compound 3.16 µM): 37.2 nM | IC50 (second compound 10 µM): < 3.16 nM | viability, T/C (second compound 0.0316 µM, first compound 0.00316 µM): 97.9% | viability, T/C (second compound 0.0316 µM, first compound 0.01 µM): 101% | viability, T/C [1]: 101% | viability, T/C [2]: 88.1% | viability, T/C [3]: 62.9% | viability, T/C [4]: 8.48% | viability, T/C (second compound 0.1 µM, first compound 0.00316 µM): 97.6% | viability, T/C (second compound 0.1 µM, first compound 0.01 µM): 98.4% | viability, T/C [5]: 95.5% | viability, T/C [6]: 72.1% | viability, T/C [7]: 57.6% | viability, T/C [8]: 4.9% | viability, T/C (second compound 0.316 µM, first compound 0.00316 µM): 90.1% | viability, T/C (second compound 0.316 µM, first compound 0.01 µM): 88.1% | viability, T/C [9]: 78.1% | viability, T/C [10]: 66.3% | viability, T/C [11]: 61.3% | viability, T/C [12]: 3.76% | viability, T/C (second compound 1 µM, first compound 0.00316 µM): 82.6% | viability, T/C (second compound 1 µM, first compound 0.01 µM): 78.6% | viability, T/C [13]: 78.2% | viability, T/C [14]: 79.1% | viability, T/C [15]: 22.9% | viability, T/C [16]: 3.27% | viability, T/C (second compound 3.16 µM, first compound 0.00316 µM): 65.4% | viability, T/C (second compound 3.16 µM, first compound 0.01 µM): 60.5% | viability, T/C [17]: 56.5% | viability, T/C [18]: 10.6% | viability, T/C [19]: 9.05% | viability, T/C [20]: 1.7% | viability, T/C (second compound 10 µM, first compound 0.00316 µM): 28% | viability, T/C (second compound 10 µM, first compound 0.01 µM): 31.1% | viability, T/C [21]: 13.9% | viability, T/C [22]: 9.85% | viability, T/C [23]: 6.01% | viability, T/C [24]: 1.71%
